Target: human mGluR2 (Homo sapiens (Human), UniProt Q14416)
Assay: [35S]GTPγS binding assay (Affinity to mGluR2)
Format: biochemical
Settings: cell membrane fraction of HEK293 cells stably expressing human mGluR2, glutamic acid 10 μM
Method: (Preparation of Cell Membrane Fraction of HEK293 Cells Stably Expressing Human Metabotropic Glutamate Receptor 2 (mGluR2))
HEK293 cells stably expressing human mGluR2 and human glutamate transporter SLC1A3 were cultured in a Dulbecco's modified Eagle's medium with 10% fetal bovine serum (50 units/mL of penicillin, 50 μg/mL of streptomycin, 60 μg/mL of geneticin, 400 μg/mL of hygromycin B and 2 mM of glutamine) at 37° C. under 5% CO2. Confluent cell cultures were washed twice with PBS(−), and then scraped off with a cell scraper, and subjected to centrifugal separation at 4° C. and 1500 rpm for 5 minutes for collecting cells. The centrifuged sediment (cell pellet) was homogenized in a 20 mM HEPES buffer containing 10 mM EDTA (pH 7.4) by using sonicator and centrifuged at 4° C. and 1500×g for 30 minutes. The supernatant (soluble fraction) was subjected to the centrifugal separation at 4° C. and 40,000×g for 30 minutes, and thus, insoluble fraction was obtained. After additional centrifugally washing the obtained fraction with 20 mM HEPES buffer containing 10 mM EDTA (pH 7.4), the pellet was centrifugally suspended with a 20 mM HEPES buffer containing 0.1 mM EDTA, and the cell membrane fraction was obtained by the centrifugal separation at 4° C. and 40,000×g for 30 minutes. The thus obtained cell membrane fraction was suspended in a 20 mM HEPES buffer containing 0.1 mM EDTA in a protein concentration of 3 mg/mL, which was stored at −80° C.
([^35S]GTPγS Binding Assay)
The frozen cell membrane fraction prepared as described above was thawed before use, and the resultant was diluted with a buffer for a binding assay (final concentrations: 20 mM HEPES, 100 mM NaCl, 1 mM MgCl2, 3 μM GDP, 300 μg/mL saponin, 0.1% BSA). The compound of each example was added to a cell membrane fraction containing 1.8 to 3 μg/assay of membrane protein on a plate, followed by incubation at room temperature for 30 minutes. Thereafter, with glutamic acid (in a final concentration of 10 μM) added thereto, incubation was performed at room temperature for 15 minutes, and thereafter, [^35S]GTPγS (in a final concentration of 0.8 kBq) and 588 μg WGA-SPA beads were added thereto, followed by incubation at room temperature for 1 hour. After the incubation, the plate was subjected to the centrifugal separation at 2,500 rpm and room temperature, and then, membrane cell binding radioactivity was measured with a top count.
A [^35S]GTPγS binding amount obtained by performing the above-described reaction in the absence of glutamic acid was defined as nonspecific binding, and a difference from a [^35S]GTPγS binding amount obtained in the presence of glutamic acid was defined as specific binding. On the basis of ratios of inhibiting the specific binding at various concentrations of the compounds of the respective examples, inhibition curves were obtained. Concentrations of the compounds of the respective examples at which the specific [^35S]GTPγS binding amount was suppressed by 50% (IC50 values) were calculated on the basis of the inhibition curves and shown in Tables 8 and 9.

[1] = inhibition of specific [35S]GTPγS binding

Sequence of human mGluR2 (Q14416 19-872): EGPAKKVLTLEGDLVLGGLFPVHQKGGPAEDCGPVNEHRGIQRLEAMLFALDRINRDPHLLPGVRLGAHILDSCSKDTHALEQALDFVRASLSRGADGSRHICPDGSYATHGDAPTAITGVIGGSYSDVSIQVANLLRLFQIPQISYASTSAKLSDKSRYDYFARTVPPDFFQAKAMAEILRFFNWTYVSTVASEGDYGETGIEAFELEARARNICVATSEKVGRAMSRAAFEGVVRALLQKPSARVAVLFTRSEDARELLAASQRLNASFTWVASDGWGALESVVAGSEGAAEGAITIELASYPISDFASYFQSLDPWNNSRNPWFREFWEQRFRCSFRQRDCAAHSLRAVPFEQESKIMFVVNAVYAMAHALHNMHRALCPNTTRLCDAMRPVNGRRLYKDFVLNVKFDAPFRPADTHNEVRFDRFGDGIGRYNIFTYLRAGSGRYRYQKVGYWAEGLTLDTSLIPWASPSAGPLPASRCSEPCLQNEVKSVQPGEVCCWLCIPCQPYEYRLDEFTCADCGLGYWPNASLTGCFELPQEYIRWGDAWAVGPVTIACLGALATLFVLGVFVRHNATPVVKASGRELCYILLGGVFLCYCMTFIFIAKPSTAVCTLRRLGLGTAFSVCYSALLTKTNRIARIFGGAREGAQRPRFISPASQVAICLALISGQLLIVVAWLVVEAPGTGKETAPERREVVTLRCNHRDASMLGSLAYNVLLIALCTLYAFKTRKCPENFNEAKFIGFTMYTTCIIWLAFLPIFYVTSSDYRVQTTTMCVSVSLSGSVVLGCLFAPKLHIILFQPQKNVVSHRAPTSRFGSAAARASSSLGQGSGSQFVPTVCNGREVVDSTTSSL

Compound | IC50 [1] [nM] | IC50 [nM]
Cc1cc(-c2nc(-c3ccc(OC4CC4)c(Cl)c3)n3c2CCOCC3)cc(C)n1 [Example 135] | – | 36.9
Cc1cc(-c2nc(-c3ccc(Cl)c(C)c3)n3c2CCO[C@H](C)C3)ccn1 [Example 54] | – | 19.4
COc1cc(-c2nc(-c3cc(C)nc(CF)c3)c3n2C[C@@H](CF)OCC3)ccc1Cl [Example 91] | – | 16.1
Cc1cc(-c2nc(-c3ccc(OC(F)(F)F)cc3)n3c2CCOCC3)cc(C)n1 [Example 42] | – | 45.3
COc1cc(-c2nc(-c3ccnc(CO)c3)c3n2C[C@@H](C)OCC3)ccc1Cl [Example 47] | – | 242
Cc1cc(-c2nc(-c3ccc(OC(F)(F)F)c(F)c3)n3c2CCO[C@H](CF)C3)ccn1 [Example 166] | 15.2 | –
COc1cc(-c2nc(-c3ccnc(C)c3)c3n2C[C@@H](C)OCC3)ccc1C(F)(F)F [Example 8, (R)-3-(3-methoxy-4-(trifluoromethyl)phenyl)-6-methyl-1-(2-methylpyridin-4-yl)-5,6,8,9-tetrahydroimidazo[1,5-d][1,4]oxazepine] | – | 13.2
COc1cc(-c2nc(-c3cc(C)nc(C(F)F)c3)c3n2C[C@@H](CF)OCC3)ccc1C [Example 81] | – | 7.1
CCCOc1cc(-c2nc(-c3cc(C)nc(C)c3)c3n2CCOCC3)ccc1F [Example 96] | – | 59.8
Cc1cc(-c2nc(-c3ccc(OC(F)(F)F)cc3)n3c2CCO[C@H](CF)C3)ccn1 [Example 70] | – | 25.5
Cc1cc(-c2nc(-c3ccc(C(F)(F)F)c(F)c3)n3c2CCOCC3)cc(C)n1 [Example 107] | – | 54
Cc1cc(-c2nc(-c3ccc(Cl)c(C#N)c3)n3c2CCO[C@H](C)C3)cc(C)n1 [Example 130] | – | 26
COc1cc(-c2nc(-c3ccnc(C)c3)c3n2C[C@@H](CF)OCC3)ccc1C(F)F [Example 160] | 24.1 | –
Cc1cc(-c2nc(-c3ccc(OC(F)(F)F)cc3)n3c2CCOCC3)ccn1 [Example 43] | – | 90
Cc1cc(-c2nc(-c3ccc(Cl)c(Cl)c3)n3c2CCO[C@H](CF)C3)ccn1 [Example 75] | – | 31
Cc1cc(-c2nc(-c3ccc(OC(C)C)c(Cl)c3)n3c2CCO[C@H](C)C3)cc(C)n1 [Example 35, (R)-3-(3-chloro-4-isopropoxyphenyl)-1-(2,6-dimethylpyridin-4-yl)-6-methyl-5,6,8,9-tetrahydroimidazo[1,5-d][1,4]oxazepine] | – | 2.7
Cc1cc(-c2nc(-c3ccc(C(F)(F)F)c(C)c3)n3c2CCOCC3)cc(C)n1 [Example 113] | – | 27
Cc1cc(-c2nc(-c3ccc(F)c(Cl)c3)n3c2CCO[C@H](CF)C3)ccn1 [Example 172] | 38.3 | –

Next, values leading:

IC50 [1] [nM] | IC50 [nM] | Compound
46.9 | – | COc1cc(-c2nc(-c3ccnc(C)c3)c3n2C[C@@H](C)OCC3)ccc1C(C)(F)F [Example 240]
7.4 | – | Cc1cc(-c2nc(-c3ccc(C)c(C(F)(F)F)c3)n3c2CCO[C@H](C)C3)cc(C)n1 [Example 183]
13.7 | – | Cc1cc(-c2nc(-c3ccc(F)c(OC(F)F)c3)n3c2CCO[C@H](C)C3)cc(C)n1 [Example 184]
21.7 | – | Cc1cc(-c2nc(-c3ccc(OC(F)F)c(CO)c3)n3c2CCO[C@H](C)C3)cc(C)n1 [Example 235]
17.2 | – | CCc1ccc(-c2nc(-c3cc(C)nc(C)c3)c3n2C[C@@H](C)OCC3)cc1OCC1CC1 [Example 222]
1.7 | – | CCOc1ccc(-c2nc(-c3cc(C)nc(C)c3)c3n2C[C@@H](CF)OCC3)cc1C [Example 243]
4 | – | Cc1cc(-c2nc(-c3ccc(OC(F)(F)F)c(C)c3)n3c2CCO[C@H](C)C3)cc(CF)n1 [Example 204]
19.3 | – | Cc1cc(-c2nc(-c3ccc(OC(F)F)c(F)c3)n3c2CCO[C@H](C)C3)ccn1 [Example 182]
2 | – | Cc1cc(-c2nc(-c3ccc(OC(F)F)c(Cl)c3)n3c2CCO[C@H](CF)C3)cc(C)n1 [Example 233]
108 | – | COc1cc(-c2nc(-c3cc(C)nc(CO)c3)c3n2C[C@@H](CF)OCC3)ccc1OC(F)F [Example 194]
13.2 | – | Cc1cc(-c2nc(-c3ccc(OC(F)(F)F)c(C)c3)n3c2CCOCC3)cc(CF)n1 [Example 198]
